# Activity calls are given as the source filed them. The rule behind the calls is not given here.
# What was measured:
# [1] = target: T1, mTORC1 (Homo sapiens, UniProt P42345+Q8N122+Q9BVC4); assay type: cell-based, MDA-MB-468
# [2] = test system: Mus musculus; experiment: In vivo inhibition of mTORC1 in human MCF7 cells harboring PIK3CA […] mutation xenografted in Balb/c nude mouse assessed as inhibition of tumor p4EBP1 level at 5 mg/kg,po and measured upto 48 hrs by MSD analysis; assay type: functional, organism-based
# [3] = test system: NCI-H2122; experiment: Antitumor activity against human NCI-H2122 cells harboring KRAS G12C mutation xenografted in Balb/c nude mouse assessed as induction of apoptosis by measuring caspase-3 level at 100 mg/kg,ip qd by immunostaining based microscopy; assay type: functional, organism-based
# [4] = test system: NCI-H2122; experiment: Antitumor activity against human NCI-H2122 cells harboring KRAS G12C mutation xenografted in Balb/c nude mouse assessed as reduction in tumor volume at 100 mg/kg,ip qd co-treated with RMC-627 at 10 mg/kg,ip qw by caliper measurement analysis; assay type: functional, organism-based
# [5] = test system: NCI-H2122; experiment: Antitumor activity against human NCI-H2122 cells harboring KRAS G12C mutation xenografted in Balb/c nude mouse assessed as induction of apoptosis by measuring caspase-3 level at 100 mg/kg,ip qd co-treated with RMC-627 at 10 mg/kg,ip qw by immunostaining based microscopy; assay type: functional, organism-based
# [6] = test system: NCI-H2122; experiment: Antitumor activity against human NCI-H2122 cells harboring KRAS G12C mutation xenografted in Balb/c nude mouse assessed as reduction in tumor volume at 100 mg/kg,ip qd by caliper measurement analysis; assay type: functional, organism-based
# [7] = Toxicity in Balb/c nude mouse xenografted with human NCI-H2122 cells harboring KRAS G12C mutation assessed as body weight loss at 100 mg/kg,ip qd co-treated with RMC-627 at 10 mg/kg,ip qw; assay type: organism-based; conditions: in vivo
# [8] = cells; assay type: cell-based; conditions: Homo sapiens, MDA-MB-468
# [9] = target: T1, mTORC1; assay type: cell-based, MDA-MB-468; remark: listed apart in the source
# [10] = test system: Mus musculus; experiment: In vivo inhibition of mTORC1 in human MCF7 cells harboring PIK3CA […] mutation xenografted in Balb/c nude mouse assessed as inhibition of tumor p4EBP1 level at 1 mg/kg,ip and measured at 4 hrs by MSD analysis; assay type: functional, organism-based
# [11] = test system: Mus musculus; experiment: In vivo inhibition of mTORC1 in human MCF7 cells harboring PIK3CA […] mutation xenografted in Balb/c nude mouse assessed as inhibition of tumor p4EBP1 level at 1 mg/kg,ip and measured after 24 hrs by MSD analysis; assay type: functional, organism-based
IC50 [1],IC50 [8],IC50 [9],SMILES,also measured
> 1000 nM,,,CO[C@H]1C[C@@H]2CC[C@@H](C)[C@@](O)(O2)C(=O)C(=O)N2CCCC[C@H]2C(=O)O[C@H]([C@H](C)C[C@@H]2CC[C@@H](OCCCCc3cn(CCOCCOCCOCCOCCOCCOCCOCCOCCC(=O)NCCCCn4nc(-c5ccc6oc(N)nc6c5)c5c(N(C)C)ncnc54)nn3)[C@H](OC)C2)CC(=O)[C@H](C)/C=C(\C)[C@@H](O)[C@@H](OC)C(=O)[C@H](C)C[C@H](C)/C=C/C=C/C=C/1C,
1.4 nM,8.4 nM,0.49 nM,CO[C@H]1C[C@@H]2CC[C@@H](C)[C@@](O)(O2)C(=O)C(=O)N2CCCC[C@H]2C(=O)O[C@H]([C@H](C)C[C@@H]2CC[C@@H](OC(=O)NCCOCCOCCOCCOCCOCCOCCOCCOCCC(=O)NCCCCn3nc(-c4ccc5oc(N)nc5c4)c4c(N)ncnc43)[C@H](OC)C2)C[C@@H](OC)[C@H](C)/C=C(\C)[C@@H](O)[C@@H](OC)C(=O)[C@H](C)C[C@H](C)/C=C/C=C/C=C/1C,
1.3 nM,13 nM,0.24 nM,CO[C@H]1C[C@@H]2CC[C@@H](C)[C@@](O)(O2)C(=O)C(=O)N2CCCC[C@H]2C(=O)O[C@H]([C@H](C)C[C@@H]2CC[C@@H](OC(=O)NCCOCCOCCOCCOCCOCCOCCOCCOCCC(=O)NCCCCn3nc(-c4ccc5oc(N)nc5c4)c4c(N)ncnc43)[C@H](OC)C2)C[C@@H](O)[C@H](C)/C=C(\C)[C@@H](O)[C@@H](OC)C(=O)[C@H](C)C[C@H](C)/C=C/C=C/C=C/1C,
0.97 nM,35 nM,0.19 nM,CO[C@H]1C[C@@H]2CC[C@@H](C)[C@@](O)(O2)C(=O)C(=O)N2CCCC[C@H]2C(=O)O[C@H]([C@H](C)C[C@@H]2CC[C@@H](OC(=O)NCCOCCOCCOCCOCCOCCOCCOCCOCCC(=O)NCCS(=O)(=O)c3ccc(C(=O)N4CCOc5ccc(-c6ccc(N)nc6)cc5C4)c(C)c3F)[C@H](OC)C2)C[C@@H](O)[C@H](C)/C=C(\C)[C@@H](O)[C@@H](OC)C(=O)[C@H](C)C[C@H](C)/C=C/C=C/C=C/1C,

# The next lines start with the compound.
SMILES,IC50 [1],IC50 [8],IC50 [9],also measured
CO[C@H]1C[C@@H]2CC[C@@H](C)[C@@](O)(O2)C(=O)C(=O)N2CCCC[C@H]2C(=O)O[C@H]([C@H](C)C[C@@H]2CC[C@@H](OCCO)[C@H](OC)C2)CC(=O)[C@H](C)/C=C(\C)[C@@H](O)[C@@H](OC)C(=O)[C@H](C)C[C@H](C)/C=C/C=C/C=C/1C [EVEROLIMUS],> 1000 nM,,,inhibition [2]: inactive
C=CC(=O)N1CCN(c2nc(=O)n(-c3c(C)ccnc3C(C)C)c3nc(-c4c(O)cccc4F)c(F)cc23)[C@@H](C)C1 [SOTORASIB],,,,Activity [3]: inactive; Activity [4]: Active; Activity [5]: Active; Activity [6]: inactive; Activity [7]: Non-Toxic
CC(C)n1nc(-c2ccc3oc(N)nc3c2)c2c(N)ncnc21,,,,inhibition [10]: Active; inhibition [11]: inactive
CC(C)n1nc(-c2cc3cc(O)ccc3[nH]2)c2c(N)ncnc21,,38 nM,,
CO[C@H]1C[C@@H]2CC[C@@H](C)[C@@](O)(O2)C(=O)C(=O)N2CCCC[C@H]2C(=O)O[C@H]([C@H](C)C[C@@H]2CC[C@@H](OC(=O)NCCOCCOCCOCCOCCOCCOCCOCCOCCC(=O)N3CCc4cc(Cn5nc(-c6ccc7oc(N)nc7c6)c6c(N)ncnc65)ccc4C3)[C@H](OC)C2)C[C@@H](O)[C@H](C)/C=C(\C)[C@@H](O)[C@@H](OC)C(=O)[C@H](C)C[C@H](C)/C=C/C=C/C=C/1C [RMC-5552],1.6 nM,35 nM,0.17 nM,

# — ChEMBL document CHEMBL5316270 (J Med Chem, 2023)
